US8158681B2, “Nutraceutical and pharmaceutical compositions and use thereof for the treatment, co-treatment or prevention of inflammatory disorders” (DSM IP Assets B.V., priority 2006, dated 2012)

Legend:
Type in all cases: cell-based, murine
[1] = test system: PGE2 production, RAW264.7; test: Inhibition of PGE2 production in LPS-stimulated RAW264.7 macrophages (EIA); settings: single compounds, RAW264.7, 1 μg/ml LPS, 24 hours
Description: (§1) Pure compounds were assayed in vitro in cellular systems. The inhibition of the synthesis of pro-inflammatory prostaglandins (PG) and of nitric oxide by the extracts or compounds was measured. PGE2 plays a critical role in the inflammation process, while nitric oxide (NO) is a hallmark of inflammation in various chronic inflammatory diseases including various forms of arthritis, gastrointestinal diseases and metabolic syndrome X.
(§2) The effects of extracts or compounds on the inflammatory response were tested in cellular assays using a murine macrophage indicator cell line, RAW264.7. The cells were purchased from ATCC (Manassas, Va., USA) and cultured in DMEM containing streptomycin/penicillin, non-essential amino acids and 10% fetal calf serum (FCS). In order to test a large range of concentration of compounds, cells (˜50′000/well) were seeded into flat-bottomed microtiter plates and cultured for one day. Cells were then starved in complete medium containing 0.25% FCS (D-025). After overnight culture, medium was removed and replaced by 100 μL of D-025 containing the test compounds at twice the final concentration. Subsequently, 100 μL of D-025 containing 2 μg/ml LPS was added (i.e. final LPS concentration of 1 μg/ml) and the cells cultured for 24 hours.
(§3) Compounds were usually tested in a concentration range from 0.2 to 50 μM in two-fold dilution steps. Extracts were tested in a range from 0.2-50 mg/L. All treatments were done in duplicates and several experimental series were done for each treatment. Concentrations of nitrite, which was rapidly formed from nitric oxide released by cells, were determined by the Griess reaction using sodium nitrite as standard. Briefly, 50 μl of supernatant was mixed with Griess reagent 1 (25 μL) and Griess reagent 2 (25 μL), centrifuged and the optical density at 540 nm determined. PGE2 secreted into the cell culture medium was determined by EIA obtained from Cayman Chemicals (Ann Harbor, Wis., USA) and used according to the manufacturer's instructions. All determinations were done in duplicates and at various dilutions of the culture supernatant. IC50 values were calculated using a […] least-square fitting equation [y=A+((B−A)/(1+((C−x)^D))] for best-fit curves (Excel fit software program).

[2] = test system: nitric oxide (NO) production, RAW264.7; test: Inhibition of nitric oxide production in LPS-stimulated RAW264.7 macrophages (Griess reaction); settings: single compounds, RAW264.7, 1 μg/ml LPS, 24 hours
Description: as §1, §2, §3

[3] = test system: IL-1 alpha mRNA; test: Expression of inflammatory genes in stimulated RAW 264.7 cells, quantitative RT-PCR: IL-1 alpha; settings: 25 μM/L Amorfrutin A; RAW 264.7, 4 hours
Description: (§4) The effect of the compounds has also been evaluated on the level of the expression of genes that are involved in the inflammatory response. These comprise genes of the prostaglandin synthesis pathway, cytokines and chemokines or inducible nitric oxide synthase (iNOS). RAW 264.7 cells were stimulated in the presence of different concentrations of substances. After 4 hours, RNA was extracted and the expression of genes determined by quantitative RT-PCR as described (Richard, N., Porath, D., Radspieler, A. and Schwager, J. Effects of resveratrol, piceatannol, tri-acetoxystilbene, and genistein on the inflammatory response of human peripheral blood leukocytes. Mol Nutr Food Res 2005. 49: 431-442). […] Collectively, the results reveal significant effects of the compounds on the expression of distinct genes involved in the inflammatory response.

[4] = test system: matrix metalloproteinase 9 (MMP-9) mRNA; test: Expression of inflammatory genes in stimulated RAW 264.7 cells, quantitative RT-PCR: MMP-9; settings: RAW 264.7, 4 hours
Description: as §4

[5] = test system: interleukin-10 (IL-10) mRNA; test: Expression of inflammatory genes in stimulated RAW 264.7 cells, quantitative RT-PCR: IL-10; settings: RAW 264.7, 4 hours
Description: as §4

[6] = test system: inducible nitric oxide synthase (iNOS) mRNA; test: Expression of inflammatory genes in stimulated RAW 264.7 cells, quantitative RT-PCR: iNOS; settings: RAW 264.7, 4 hours
Description: as §4

Row | Structure (SMILES) | IC50 ([1]; Mus musculus) [µM] | IC50 ([2]; Mus musculus) [µM] | IC50 [1] [µM] | IC50 [2] [µM] | other results
1 | CCCCCc1cc(OC)c(CC=C(C)C)c(O)c1C(=O)O [2-hydroxy-4-methoxy-3-(3-methyl-2-butenyl)-6-pentyl-benzoic acid] | > 50 | 10.9 ± 1.2 |  |  | 
2 | C=C(C)C(O)Cc1c(OC)cc(CCc2ccccc2)c(C(=O)O)c1O (stereo not shown) [2-hydroxy-4-methoxy-3-(2-hydroxy-3-methyl-3-butenyl)-6-(2-phenylethyl)-benzoic acid] | 40.7 ± 11.8 | 14.6 ± 0.3 |  |  | 
3 | C=C(C)C(O)Cc1c(OC)cc(CCCCC)c(C(=O)O)c1O (stereo not shown) [2-hydroxy-4-methoxy-3-(2-hydroxy-3-methyl-3-butenyl)-6-pentyl-benzoic acid] | 18.9 ± 1.6 | 22.1 ± 1.6 |  |  | 
4 | COc1cc(CCc2ccccc2)c(C(=O)O)c(O)c1CC=C(C)C [Amorfrutin A (III), Amorfrutin A] |  |  | 74.1 ± 12.1 | 7.1 ± 0.1 | % expression of IL-1 alpha mRNA relative to cells stimulated with LPS only (=100%) [3]: 94%; % expression of MMP-9 mRNA relative to cells stimulated with LPS only (=100%) ([4]; 25 μM/L Amorfrutin A): 69%; Effect on MMP-9 gene expression (in words) ([4]; RT-PCR): significantly reduced; % expression of IL-10 mRNA relative to cells stimulated with LPS only (=100%) ([5]; 25 μM/L Amorfrutin A): 22%; Effect on IL-10 gene expression (in words) ([5]; RT-PCR): significantly reduced; % expression of iNOS mRNA relative to cells stimulated with LPS only (=100%) ([6]; 25 μM/L Amorfrutin A): 52%; Effect on iNOS gene expression (in words) ([6]; RT-PCR): significantly reduced
5 | CCCCCc1cc(OC)c(C/C=C(\C)CCC=C(C)C)c(O)c1C(=O)O [Cannabigerolic acid monomethyl ether] |  |  | 17.9 ± 11.6 | 31.3 ± 2.5 | 
6 | COc1cc(CCc2ccccc2)c(C(=O)O)c(O)c1C/C=C(\C)CCC=C(C)C [Amorfrutin B (II), Amorfrutin B] |  |  | > 100 | 22.8 ± 4.1 | 
